# Results taken from patent US8871681B2, “Herbicidal compositions comprising 4-amino-3-chloro-5-fluoro-6-(4-chloro-2-fluoro-3-methoxyphenyl) pyridine-2-carboxylic acid or a derivative thereof and certain sulfonylureas” (Dow AgroSciences LLC, priority 2012, dated 2014).
# Key:
# [1] = test system: GALAP (Galium aparine, cleavers); assay: Post-emergence foliar-applied weed control in cereal crops, greenhouse (Example III); format: in vivo, Galium aparine (L.); conditions: Table 51, after 20-22 days, 8.75 gai/ha alone
# Description: Seeds of the desired test plant species were planted in Sun Gro MetroMix® 306 planting mixture, which typically has a pH of 6.0 to 6.8 and an organic matter content of about 30 percent, in plastic pots with a surface area of 103.2 square centimeters (cm^2). When required to ensure good germination and healthy plants, a fungicide treatment and/or other chemical or physical treatment was applied. The plants were grown for 7-36 days in a greenhouse with an approximate 14 hour photoperiod which was maintained at about 18° C. during the day and 17° C. during the night. Nutrients and water were added on a regular basis and supplemental lighting was provided with overhead metal halide 1000-Watt lamps as necessary. […]
# Measured aliquot of benzyl ester of 4-amino-3-chloro-5-fluoro-6-(4-chloro-2-fluoro-3-methoxy-phenyl)pyridine-2-carboxylic acid (Compound A) was placed in 25 milliliter (mL) glass vials and diluted in a volume of 1.25% (v/v) Agri-dex crop oil concentrated to obtain stock solutions. […]
# The treated plants and control plants were placed in a greenhouse as described above and watered by sub-irrigation to prevent wash-off of the test compounds. After 20-22 days, the condition of the test plants as compared with that of the control plants was determined visually and scored on a scale of 0 to 100 percent where 0 corresponds to no injury and 100 corresponds to complete kill. […]
# [2] = test system: VERPE (Veronica persica, bird's-eye speedwell); assay: as above; format: in vivo, Veronica persica Poir.
# Method in brief: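 Greenhouse plants at the second or third true leaf stage (14 hour photoperiod, about 18/17 °C) were track-sprayed at 187 L/ha with Compound A SC, a second cereal herbicide, or their combinations, using 1.25% v/v crop oil concentrate. Injury was scored visually at 20-22 days against solvent-blank controls on a 0–100% scale. Expected mixture effects were calculated with Colby's equation.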
# [3] = test system: VIOTR (Viola tricolor, wild pansy); assay: as above; format: in vivo, Viola tricolor (L.); conditions: 8.75 gai/ha alone
# Description: (§1) Seeds of the desired test plant species were planted in Sun Gro MetroMix® 306 planting mixture, which typically has a pH of 6.0 to 6.8 and an organic matter content of about 30 percent, in plastic pots with a surface area of 103.2 square centimeters (cm^2). When required to ensure good germination and healthy plants, a fungicide treatment and/or other chemical or physical treatment was applied. The plants were grown for 7-36 days in a greenhouse with an approximate 14 hour photoperiod which was maintained at about 18° C. during the day and 17° C. during the night. Nutrients and water were added on a regular basis and supplemental lighting was provided with overhead metal halide 1000-Watt lamps as necessary. The plants were employed for testing when they reached the second or third true leaf stage.
# Treatments consisted of the benzyl ester of 4-amino-3-chloro-5-fluoro-6-(4-chloro-2-fluoro-3-methoxy-phenyl)pyridine-2-carboxylic acid (Compound A), formulated as an SC (suspension concentrate), and a second cereal herbicide alone and in combination.
# Measured aliquot of benzyl ester of 4-amino-3-chloro-5-fluoro-6-(4-chloro-2-fluoro-3-methoxy-phenyl)pyridine-2-carboxylic acid (Compound A) was placed in 25 milliliter (mL) glass vials and diluted in a volume of 1.25% (v/v) Agri-dex crop oil concentrated to obtain stock solutions. Compound requirements are based upon a 12 mL application volume at a rate of 187 liters per hectare (L/ha). Spray solutions of the second cereal herbicide and experimental compound mixtures were prepared by adding the stock solutions to the appropriate amount of dilution solution to form 12 mL spray solution with active ingredients in two- and three-way combinations. Formulated compounds were applied to the plant material with an overhead Mandel track sprayer equipped with an 8002E nozzle calibrated to deliver 187 L/ha over an application area of 0.503 square meters (m^2) at a spray height of 18 inches (46 cm) above average plant canopy. Control plants were sprayed in the same manner with the solvent blank.
# The treated plants and control plants were placed in a greenhouse as described above and watered by sub-irrigation to prevent wash-off of the test compounds. After 20-22 days, the condition of the test plants as compared with that of the control plants was determined visually and scored on a scale of 0 to 100 percent where 0 corresponds to no injury and 100 corresponds to complete kill.
# Colby's equation was used to determine the herbicidal effects expected from the mixtures (Colby, S. R. 1967. Calculation of the synergistic and antagonistic response of herbicide combinations. Weeds 15:20-22.).
# The following equation was used to calculate the expected activity of mixtures containing two active ingredients, A and B: Expected=A+B−(A×B/100)
# [4] = test system: SIDSP (Sida spinosa, prickly sida); assay: Post-emergence herbicidal activity of mixtures in forage crops, greenhouse (Example IV); format: in vivo, Sida spinosa L.; conditions: Table 58 (forage), foliar-applied, after approximately 21 days
# Description: as §1, with “Seeds or root cuttings” for “Seeds”, “126.6” for “103.2”, “14-60” for “7-36”, “approximately 28°” for “about 18°”, “24°” for “17°”, “BBCH13 to BBCH23” for “second or third true”
# (§2) Treatments consisted of the benzyl ester of 4-amino-3-chloro-5-fluoro-6-(4-chloro-2-fluoro-3-methoxy-phenyl)pyridine-2-carboxylic acid (Compound A), formulated as a SC, and a second herbicide alone and in combination.
# (§3) A measured aliquot of Compound A was placed in 25 milliliter (mL) glass vial and diluted in a volume of 1.25% (v/v) Agri-dex crop oil concentrated to obtain stock solutions. Compound requirements are based upon a 12 mL application volume at a rate of 187 liters per hectare (L/ha). Spray solutions of the second cereal herbicide and experimental compound mixtures were prepared by adding the stock solutions to the appropriate amount of dilution solution to form 12 mL spray solution with active ingredients in two- and three-way combinations. […]
# (§4) The treated plants and control plants were placed in a greenhouse as described above and watered by sub-irrigation to prevent wash-off of the test compounds. After approximately 21 days, the condition of the test plants, as compared with that of the control plants, was determined visually and scored on a scale of 0 to 100 percent where 0 corresponds to no injury and 100 corresponds to complete kill. […]
# [5] = test system: CASOB (Cassia obtusifolia, sicklepod); assay: as above; format: in vivo, Cassia obtusifolia L.; conditions: Table 58 (forage), foliar-applied, after approximately 21 days
# Description: as §1, with “Seeds or root cuttings” for “Seeds”, “126.6” for “103.2”, “14-60” for “7-36”, “approximately 28°” for “about 18°”, “24°” for “17°”, “BBCH13 to BBCH23” for “second or third true”
# as §2, §3, §4
# [6] = test system: POROL (Portulaca oleracea, portulaca); assay: as above; format: in vivo, Portulaca oleracea L.; conditions: Table 58 (forage), foliar-applied, after approximately 21 days
# Description: as §1, with “Seeds or root cuttings” for “Seeds”, “126.6” for “103.2”, “14-60” for “7-36”, “approximately 28°” for “about 18°”, “24°” for “17°”, “BBCH13 to BBCH23” for “second or third true”
# as §2, §3, §4
compound,measurement,setting,value
COc1c(Cl)ccc(-c2nc(C(=O)OCc3ccccc3)c(Cl)c(N)c2F)c1F [Compound A Benzyl Ester],Weed Control GALAP Obs,[1],70%
same,Weed Control VERPE Obs,"[2]; Table 51, after 20-22 days, 8.75 gai/ha alone",50%
same,Weed Control VERPE Obs,"[2]; Table 53, after 20-22 days, 8.75 gai/ha alone",50%
same,Weed Control VERPE Obs,"[2]; Table 55, after 20-22 days, 8.75 gai/ha alone",50%
same,Weed Control VERPE Obs,"[2]; Table 57, after 20-22 days, 8.75 gai/ha Compound A Benzyl Ester alone",50%
same,Weed Control VIOTR Obs,"[3]; Table 52, after 20-22 days",50%
same,Weed Control VIOTR Obs,"[3]; Table 54, after 20-22 days",50%
same,Weed Control SIDSP Obs,[4]; 2.2 gai/ha alone,77%
same,Weed Control SIDSP Obs,[4]; 4.4 gai/ha alone,85%
same,Weed Control CASOB Obs,[5]; 2.2 gai/ha alone,33%
same,Weed Control CASOB Obs,[5]; 4.4 gai/ha alone,38%
same,Weed Control POROL Obs,[6]; 2.2 gai/ha alone,47%
same,Weed Control POROL Obs,[6]; 4.4 gai/ha alone,60%
